The test concerns the target T1, human GluR2 flip (unedited) AMPA receptor subunit (Homo sapiens, UniProt P42262).
T1 construct: expressed in transfected cells
As to the kind of experiment: Calcium influx fluorescence assay (FLUO4, potentiation of glutamate response). The class given is cell-based. The conditions noted are these: Assay a); HEK 293 cells expressing human GluR2 flip (unedited); 100 μM glutamate final; peak fluorescence. Here is the method:
The ability of the compounds of the invention to potentiate glutamate receptor-mediated response were determined a) by using fluorescent calcium-indicator dyes such as FLUO4 and b) by measuring glutamate-evoked current recorded from human GluR2 flip unedited HEK293 cells.
a) Calcium Influx Fluorescence Assay
384 well plates were prepared containing confluent monolayer of HEK 293 cells either stably expressing or transiently transfected with human GluR2 flip (unedited) AMPA receptor subunit. These cells form functional homotetrameric AMPA receptors. […]
The cell plate was then transferred into a fluorescence imaging plate based reader [such as the FLIPR384 (Molecular Devices)]. A baseline fluorescence reading was taken over a 10 to 240 second period, and then 10 μL from each plate containing a compound of the invention made up in standard buffer solution (in a concentration range from 100 μM to 10 pM) was added (to give a final concentration in the range 30 μM to 3 pM). The fluorescence was read over 5 minute period. […] The fluoresecence was then read over a 4 minute period. The activities of the compounds of the invention and reference compounds were determined by measuring peak fluorescence after the last addition. The activity can also be expressed relative to the fluorescence increase induced by cyclothiazide at their maximum response (i.e. greater than 30 μM).

We go through one compound from patent US7741351B2, “Compounds which potentiate glutamate receptor and uses thereof in medicine” (Glaxo Group Limited, priority 2004, dated 2010).

By EC50 is commonly meant the concentration at which the effect is half-maximal.

T1 sequence (P42262 25-883 isoform P42262-2 limits assumed): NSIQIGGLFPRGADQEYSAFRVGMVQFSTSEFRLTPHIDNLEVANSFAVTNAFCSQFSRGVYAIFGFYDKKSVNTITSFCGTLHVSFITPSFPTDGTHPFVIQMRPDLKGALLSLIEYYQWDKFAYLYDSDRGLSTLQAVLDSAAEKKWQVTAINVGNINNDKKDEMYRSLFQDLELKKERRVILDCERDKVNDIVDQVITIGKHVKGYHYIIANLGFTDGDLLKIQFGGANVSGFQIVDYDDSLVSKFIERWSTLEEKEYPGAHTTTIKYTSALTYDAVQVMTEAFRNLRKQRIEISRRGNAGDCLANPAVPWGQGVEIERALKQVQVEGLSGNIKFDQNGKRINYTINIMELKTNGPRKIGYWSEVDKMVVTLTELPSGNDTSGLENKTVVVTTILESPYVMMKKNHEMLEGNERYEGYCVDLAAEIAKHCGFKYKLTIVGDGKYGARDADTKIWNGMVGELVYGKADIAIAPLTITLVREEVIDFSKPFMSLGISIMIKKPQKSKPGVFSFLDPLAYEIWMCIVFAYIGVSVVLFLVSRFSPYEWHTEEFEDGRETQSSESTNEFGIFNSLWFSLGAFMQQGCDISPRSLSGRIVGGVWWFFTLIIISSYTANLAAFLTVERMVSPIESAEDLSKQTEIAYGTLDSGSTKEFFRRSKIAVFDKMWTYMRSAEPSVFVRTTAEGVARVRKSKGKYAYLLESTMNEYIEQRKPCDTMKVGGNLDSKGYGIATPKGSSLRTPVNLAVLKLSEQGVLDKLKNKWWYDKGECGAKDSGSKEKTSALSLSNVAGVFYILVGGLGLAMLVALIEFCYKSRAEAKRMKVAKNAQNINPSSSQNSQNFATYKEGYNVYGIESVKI

Regarding `CCS(=O)(=O)Nc1cccc(-c2ccc3c(c2)CC(NS(=O)(=O)C(C)C)C3)c1` (stereo not shown) [Example 6, N-(5-{3-[(ethylsulfonyl)amino]phenyl}-2,3-dihydro-1H-inden-2-yl)-2-propanesulfonamide], the EC50 is 3.16 µM.
